Columns and labels:
Test in all cases: relative viability (nuclei count vs DMSO), 5 days (fraction); higher = more cells survive
[1] = tested on: 201T
Summary of the method: (§1)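 Lung cancer cell lines in 1536-well plates were dosed by pin tool the day after seeding, either with one drug alone or with a fixed anchor-drug dose plus five library-drug doses (not always all listed) in √10 steps. After 5 days, cells were fixed and their nuclei stained in one step (final 0.05% Triton X-100, 1% formaldehyde, 1 ug/ml Hoechst), then counted on 4× images. Relative viability is the nuclei count in treated wells divided by that in vehicle wells. Values are medians of duplicate plates.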

[2] = tested on: BEN
Summary of the method: as §1

[3] = tested on: COR-L 105
Summary of the method: as §1

[4] = tested on: EKVX
Summary of the method: as §1

[5] = tested on: EPLC-272H
Summary of the method: as §1

[6] = tested on: H3255
Summary of the method: as §1

[7] = tested on: HCC-44
Summary of the method: as §1

[8] = tested on: HCC-827
Summary of the method: as §1

[9] = tested on: LCLC-97TM1
Summary of the method: as §1

[10] = tested on: LOU-NH91
Summary of the method: as §1

[11] = tested on: LU99A
Summary of the method: as §1

In the case of O=c1cc(-c2cccc3c2Sc2ccccc2S3)oc(N2CCOCC2)c1 + O=C(c1cc(Cc2n[nH]c(=O)c3ccccc23)ccc1F)N1CCN(C(=O)C2CC2)CC1 [Olaparib] (partner 8 µM), the relative viability ([1]; first compound 0.08 µM) was 0.688, the relative viability ([1]; first compound 0.253 µM) was 0.909 and the relative viability ([1]; first compound 0.8 µM) was 0.861. It also gave a relative viability ([1]; first compound 2.53 µM) of 0.84, a relative viability ([1]; first compound 8 µM) of 0.703 and a relative viability ([2]; first compound 0.08 µM) of 0.998. It also gave a relative viability ([2]; first compound 0.253 µM) of 1.15, a relative viability ([2]; first compound 0.8 µM) of 1.04 and a relative viability ([2]; first compound 2.53 µM) of 0.956. For the same molecule, the relative viability ([2]; first compound 8 µM) was 1.07, the relative viability ([3]; first compound 0.08 µM) was 0.546 and the relative viability ([3]; first compound 0.253 µM) was 0.665. For the same molecule, the relative viability ([3]; first compound 0.8 µM) was 0.468, the relative viability ([3]; first compound 2.53 µM) was 0.682 and the relative viability ([3]; first compound 8 µM) was 0.78. The relative viability ([4]; first compound 0.08 µM) was 0.829, the relative viability ([4]; first compound 0.253 µM) was 0.852 and the relative viability ([4]; first compound 0.8 µM) was 0.623. The relative viability ([4]; first compound 2.53 µM) was 0.803, the relative viability ([4]; first compound 8 µM) was 1.05 and the relative viability ([5]; first compound 0.08 µM) was 0.986. For the same molecule, the relative viability ([5]; first compound 0.253 µM) was 0.896, the relative viability ([5]; first compound 0.8 µM) was 0.998 and the relative viability ([5]; first compound 2.53 µM) was 0.774. It also gave a relative viability ([5]; first compound 8 µM) of 0.483, a relative viability ([6]; first compound 0.08 µM) of 0.592 and a relative viability ([6]; first compound 0.253 µM) of 0.586. The relative viability ([6]; first compound 0.8 µM) was 0.571, the relative viability ([6]; first compound 2.53 µM) was 0.525 and the relative viability ([6]; first compound 8 µM) was 0.594. The relative viability ([7]; first compound 0.08 µM) was 0.927, the relative viability ([7]; first compound 0.253 µM) was 1.02 and the relative viability ([7]; first compound 0.8 µM) was 0.972. It also gave a relative viability ([7]; first compound 2.53 µM) of 1.02, a relative viability ([7]; first compound 8 µM) of 0.951 and a relative viability ([8]; first compound 0.08 µM) of 0.621. It also gave a relative viability ([8]; first compound 0.253 µM) of 0.716, a relative viability ([8]; first compound 0.8 µM) of 0.677 and a relative viability ([8]; first compound 2.53 µM) of 0.588. The relative viability ([8]; first compound 8 µM) was 0.768, the relative viability ([9]; first compound 0.08 µM) was 0.404 and the relative viability ([9]; first compound 0.253 µM) was 0.555. It also gave a relative viability ([9]; first compound 0.8 µM) of 0.463, a relative viability ([9]; first compound 2.53 µM) of 0.31 and a relative viability ([9]; first compound 8 µM) of 0.378. For the same molecule, the relative viability ([10]; first compound 0.08 µM) was 0.875, the relative viability ([10]; first compound 0.253 µM) was 0.945 and the relative viability ([10]; first compound 0.8 µM) was 0.866. The relative viability ([10]; first compound 2.53 µM) was 0.863, the relative viability ([10]; first compound 8 µM) was 0.917 and the relative viability ([11]; first compound 0.08 µM) was 0.251. The relative viability ([11]; first compound 0.253 µM) was 0.298, the relative viability ([11]; first compound 0.8 µM) was 0.296 and the relative viability ([11]; first compound 2.53 µM) was 0.245. It also gave a relative viability ([11]; first compound 8 µM) of 0.214.

Source: the supplement of paper PMC10307832
